Here are results for nine molecules from US12245591B2, “Templated antimicrobial microgels and methods of making and using the same” (THE BOARD OF TRUSTEES OF THE UNIVERSITY OF ARKANSAS, priority 2019, dated 2025).

Values after ≈ are worked out from the molar mass of the structure shown. Read-outs that look alike come from different tables or passages of the source.

Data set [1] is described as follows: physchem.
Description: As the dissociation constant of CEA in water is to the best of our knowledge not reported, we used the structural similarity between CEA and propionic acid to predict the pKa value of CEA as 4.9.42 We then projected the pKa value of a linear CEA-polymer as 5.6, and estimated the pKa value of a crosslinked microgel with 20 mol % of CEA as 10.1 following the method by Fisher and Kunin as described.43 In short, the apparent pKa values of crosslinked microgels were estimated from the pKa(m=1) value of a linear polymer of the monomeric acid as eq 2 pKa,app=pKa(m=1)(2−m) (eq 2) where m is the mol fraction of the monomeric acid. The dissociation constant of the linear polymer is estimated graphically by extrapolation.
Data set [2] relates to S. aureus (ATCC 25923). As to the kind of experiment: Minimal inhibitory concentration (MIC), broth microdilution, S. aureus. The format is cell-based. Particulars: for MIC: Staphylococcus aureus. The procedure:
(§1) The minimal inhibitory concentration (MIC) and minimal bactericidal concentration (MBC) by broth microdilution assays in 96-well plates to determine antimicrobial activity of selected agents against Gram-positive and Gram-negative bacteria
(§2) Antimicrobial materials: In a typical experiment, the synthesized polymers were prepared for antimicrobial assays as described for the kinetic assays in Example 4(A), except as indicated in Tables 7-10 and 12.
(§3) Mueller Hinton broth (MHB): A sterile broth is prepared with 4.50 g Mueller Hinton base (Hardy Diagnostics) in 200 mL deionized water. The broth is cooled to room temperature after being autoclaved and stored at 4° C. until use.
(§4) Propagation of bacterial cells: Typically, 500 μL aliquots of S. aureus (ATCC® 25923™) or E. coli (BL21 DE3) cells are used to inoculate 5 mL of Mueller Hinton broth. The inoculum is shaken at 37° C. and 240 rpm for 6 h. Then, 500 μL aliquots are transferred to individual vessels, flash-frozen in liquid nitrogen, and stored as pre-starter cultures at −20° C. until use.
(§5) Growth of bacterial cells: A 500 μL pre-starter culture is used to inoculate 5 mL of Mueller Hinton broth at 37° C. After 5 h of shaking at 240 rpm, a 500 μL of the inoculum is diluted to 20 mL with sterile MHB, followed by three successive 1:10 dilutions of 1000 μL of the resulting solutions into 10 mL MHB. Subsequently, 50 μL of the most dilute cell suspension is spread on a Mueller-Hinton agar plate, and incubated at 37° C. After 24 h, selected colonies are re-suspended in 4 mL of Mueller-Hinton broth and diluted until their OD625 value matched that of a 0.5 McFarland standard at 37° C. to account for a cell concentration of 1×10^8 CFU/mL. Typically, a 50 μL aliquot of the cell suspension is diluted into 10 mL of Mueller-Hinton broth to obtain a stock solution of S. aureus cells at a concentration of 5×10^5 CFU/mL. Typically, two separate inoculums are prepared immediately prior to use.
(§6) Preparation of broth microdilution assays and data recording: Following standard procedures for conducting broth microdilution assays, 100 μL aliquots of Mueller-Hinton broth are added to each well. Subsequently, a 100 μL aliquot of the sterile antimicrobial agent solution is added in the first column of the plate and then diluted in a serial manner by subsequent transfers of 100 μL aliquots over the first 10 columns. […] Typically, the absorbance in each well is then monitored at 595 nm and 37° C. over a 16 h period in 2 h intervals.
(§7) Data analysis: The obtained absorbance data are plotted against time to determine the steady state point of cell growth. The change of absorbance at this time for wells with and without antimicrobial agent is then plotted against the concentration of the antimicrobial agent. […]

Data set [3] relates to E. coli (BL21 DE3). The data set is described as follows: Minimal inhibitory concentration (MIC), broth microdilution, E. coli. The note with it: for MIC: Escherichia coli, read-out: MIC E. coli. The data set is classed as cell-based. The protocol: as §1, §2, §3, §4, §5, §6, §7
Background: In broth dilution the organism is exposed to a series of concentrations in liquid medium.

Data set [4] is described as follows: Stability of galactonoamidine against hydrolysis under buffer and temperature conditions (HPLC, NMR). The format is physicochemical. The protocol:
The instrumentation, reagents, and materials for this study were recently described. [Sharma, B. et al. Biomacromolecules 2018, 19, 1164-1174; Sharma, B. et al. […]. 2018, 8, 7710-7718] The computational analysis was performed with PQSmol as reported. [Sharma Biomacromolecules 2018; […]. et al. Dalton Trans. 2016, 45, 15203-15210; Becke, A. D. J. Chem. Phys. 1993, 98, 5648-5652; Lee, C. et al. Phys. Rev. B: Condens. Matter Mater. Phys. 1988, 37, 785-789; PQSmol, Version 4.1; Parallel Quantum Solutions: […]. et al. J. Chem. […] [[…]. et al. Bioorg. Med. Chem. 2016, 24, 3371-3377] Glyconoamidines are prone to nucleophilic attack at the anomeric C atom and subsequent hydrolysis in alkaline solution. Various glyconoamidines have been previously synthesized. [Bleriot, Y. et al. Bioorg. Med. Chem. Lett. 1995, 5, 2655-60; Bleriot, Y. et al. Tetrahedron Lett. 1994, 35, 1867-70; Heck, M.-P. et al. J. Am. Chem. Soc. 2004, 126, 1971-1979; […]. Res. 1996, 29, 340-347] We evaluated the hydrolysis of galactonoamidine 1 under various buffer and temperature conditions to ensure its stability under polymerization conditions. […] The stability of 1 was also observed at 0 and 10° C. over a 3 h time period in 5 mM CAPS buffer solution at pH 10.50. Buffer solutions with similar molarity at lower pH values behave likewise (FIG. 13).

A short description of data set [5]: Coordination to binuclear complex Cu2bpdpo, isothermal titration calorimetry. The format is binding. The note with it: coordination to the metal complex; pH 10.50, 10° C.
Description: The coordination of galactonoamidine 1 to binuclear complexes was already evaluated in part and included Cu2bpdpo (5), a nonpolymerizable analogue of 3 (FIG. 15).
For data set [6], the system named is B21 DE3 E. coli cells. As to the kind of experiment: Growth of E. coli cells in petridish assays with Müller-Hinton/agar media. The format is cell-based. The note with it: 37° C., 12 h. The protocol: Sterile Müller-Hinton/Agar (MH) media. 4.54 g Müller-Hinton media and 5.07 g agar were dissolved in 200 mL deionized water. The media were autoclaved and stored at 4° C. until use.
E. coli cell culture. A 100 μL aliquot of B21 DE3 E. coli cells, purchased from New England Biolabs, were added to 1 mL of sterile Luria-Bertani broth; the culture was incubated for 2 hours at 37° C. Then, a 100 μL aliquot of this culture was diluted by serial dilution 200,000-fold with sterile LB (Miller's) media yielding 10 mL of a stock solution of the cell culture.
Stock solution of low molecular weight complex Cu2bpdpo (catalyst 1). 5.28 mg of Cu2bpdpo were dissolved in 5 mL of 50 mM HEPES buffer at pH 7.00; a 1000 μl aliquot of the resulting solution was further diluted into 10 mL yielding a 160.3 μM stock solution of Cu2bpdpo.
Stock solution of Hen Egg-white lysozyme (catalyst 2). 11.53 mg of lyophilized lysozyme purchased from AMRESCO were dissolved in 5 mL of 50 mM HEPES buffer at pH 7.00 and used as a 161.1 μM stock solution.
Stock solutions of microgels (catalysts 3-5). All microgel stock solutions were treated as described above, but only diluted 1:5 during activation and then sterilized prior to use for these experiments. The stock solution for ^Cu2LPgal (40%) is 112.3 μM, for ^Cu2LPgal (60%) 145.6 μM and for ^Cu2LP1 (60%) 153.6 μM.
Plate preparation. […]

The format of data set [7] is biochemical. The note with it: for Km / kcat: substrate β-9. The procedure: 2.8.4. Catalytic Glycoside Hydrolysis. […]
Substrate Stock Solution. […] As the glycoside precipitates in this concentration from aqueous solutions at ambient temperature, the resulting solution was kept above 50° C. until use.
Catalyst Stock Solutions. The microgel dispersions were used as described above. […]
Kinetic Assay. In a typical experiment, 20 μL of an activated microgel dispersion were added to aliquots of the glycoside stock solution (0-100 μL) and corresponding amounts of buffer solution, keeping the nominal volume of the resulting solutions at 200 μL. […] The product formation was read in 20 min intervals after orbital shaking of the solutions over 5 s each. All experiments were performed in duplicate or triplicate.
Data Analysis. The collected fluorescence intensity was plotted over time, and a linear fit applied to the data collected between 140 and 480 min. The calculated rates of the reaction were then corrected by the corresponding apparent extinction coefficient and catalyst amount, averaged from two independent experiments, and plotted over the molar substrate concentration. Nonlinear regression of the resulting hyperbolic data yielded the rate constant kcat and the apparent substrate affinity KM. The rate constant of the uncatalyzed reaction knon was determined by applying a linear fit to the corrected rates of the collected data obtained in absence of catalyst. Data obtained in the presence of metal-ion free control polymer ^LPgal and from control polymer ^Cu2LPEG were treated likewise to estimate their catalytic efficiency.
The turbidity of the aqueous microgel dispersions under consideration here increases visibly to the naked eye with the crosslinking content from 5 to 80 mol % EGDMA. As a consequence, the apparent extinction coefficient (εapp) was determined for each microgel under the respective assay conditions prior to analysis of related spectroscopic data. […] (FIG. 9). [Chen, R. F Anal. Lett. 1968, 1(7), 423-428] […] [Striegler 2010] and used here to establish catalytic activity of the newly synthesized crosslinked microgels. The assay was developed in a 96-well plate format to allow fast catalyst screening under various reaction conditions, including lower pH values in future efforts.
Likewise, a linear correlation between the concentration of the low molecular weight complex Cu2bpdpo (2) and the product formation of the glycoside hydrolysis was observed when the catalyst was used in concentrations up to 12 μM under assay conditions. With a fast screening assay on hand, the hydrolysis of glycoside 6 was evaluated with two different microgel catalysts at 60% crosslinking content: a polymer […] prepared in the presence of galactose and its metal-free, nonactivated analogue ^LPgal. Control experiments were conducted using a microgel ^Cu2LPEG that has the same crosslinking content as those polymers above, but is prepared in the presence of ethylene glycol instead of galactose. Additionally, hydrolysis of 6 was followed in the presence of low molecular weight complex Cu2bpdpo (2) and in the absence of catalyst in the buffer solution itself. The resulting hyperbolic data for the glycoside hydrolyses were analyzed by applying the Michaelis-Menten model to obtain the rate of the reaction (kcat), the substrate affinity (KM), and the rate of the uncatalyzed reaction (knon) in aqueous buffer solution. The catalytic proficiency (kcat/(KM×knon), catalytic efficiency (kcat/KM), and acceleration of the reaction over the uncatalyzed background reaction (kcat/knon) were then calculated therefrom as described (Table 1, FIG. 11).
Activated microgel catalysts were prepared as described. [Sharma Biomacromolecules 2018] Typical stock solutions were as follows: Cu2bpdpo […] 2 mM, β-galactosidase as described [Sharma ACS Catal. 2018], 4-methylumbelliferyl α-D-galactopyranoside (α-9) 8-9 mM, and 4-methylumbelliferyl […] 3-4 mM. […]

The mark [8] stands for this setting: ATCC25923, broth microdilution, 37° C., 2.5×10^5 CFU/mL, read-out: MIC S. aureus.
Where [9] appears, read: broth microdilution, 37° C., 2.5×10^5 CFU/mL.
[10] abbreviates: 5 mM aqueous HEPES buffer, pH 7.00, 37° C.
Where [11] appears, read: 50 mM aqueous CAPS buffer, pH 10.50, 37° C.

`C=CC(=O)OCCC(=O)O` [CEA monomer, carboxyethyl acrylate] had a pKa in data set [1] of 4.9.

`O=C(N[C@H](CO)[C@H](O)c1ccc([N+](=O)[O-])cc1)C(Cl)Cl` [Chloramphenicol]: the figures for the MIC in data set [2] (setting [8]) and in data set [3] (setting [9]) were 6.11 ± 0.02 µg/mL (≈ 18.9 µM) and 1.29 ± 0.04 µg/mL (≈ 3.99 µM), respectively.

For `CCCCCCCCCCCCOS(=O)(=O)[O-].[Na+]` [SDS, sodium dodecyl sulfate], the MIC in data set [2] (setting [8]) came out at 122 ± 1 µg/mL; in data set [3] (setting [9]), 325 ± 11 µg/mL.

In the case of `CN[C@H](CC(C)C)C(=O)N[C@H]1C(=O)N[C@@H](CC(N)=O)C(=O)N[C@H]2C(=O)N[C@H]3C(=O)N[C@H](C(=O)N[C@H](C(=O)O)c4cc(O)cc(O)c4-c4cc3ccc4O)[C@H](O)c3ccc(c(Cl)c3)Oc3cc2cc(c3O[C@@H]2O[C@H](CO)[C@@H](O)[C@H](O)[C@H]2O[C@H]2C[C@](C)(N)[C@H](O)[C@H](C)O2)Oc2ccc(cc2Cl)[C@H]1O` [Vancomycin], the MIC in data set [2] (ATCC25923, read-out: MIC S. aureus) came to 2.35 ± 0.14 µg/mL (≈ 1.62 µM); in data set [3], 12.5 ± 0.2 µg/mL (≈ 8.63 µM).

Consider `Cc1ccc(CNC2=NC(CO)C(O)C(O)C2O)cc1` (stereo not drawn) [galactonoamidine 1], for which the stability against hydrolysis entry in data set [4] (50 mM CAPS buffer, pH 10.50, 72° C.) is listed as “instant hydrolysis”; in data set [4] (buffer strength lowered to 5 mM, pH 10.50, 72° C.) it was “slowed the hydrolysis”; in data set [4] (pure deuterium oxide, 72° C., 3 h) it was “stable”.

As for `O=C[C@H](O)[C@@H](O)[C@@H](O)[C@H](O)CO` [galactose], the “pKa, gal” value in data set [5] is recorded as 2.70.

Regarding Benzalkonium chloride, the “MIC S. aureus” value in data set [2] (setting [9]) amounted to 4.32 ± 0.01 µg/mL. In addition, the “MIC E. coli” value in data set [3] (setting [9]) came out at 117 ± 1 µg/mL.

“lysozyme: Hen Egg-white lysozyme purchased from AMRESCO”: the “inhibition of cell growth of E. coli on Müller-Hinton agar plates” value in data set [6] is listed as “inhibition of cell growth to a much smaller extend”.

On to “β-galactosidase: β-galactosidase (bovine liver)”, for which, in data set [7] (pH 7), the “stabilization of enzyme-catalyzed hydrolysis relative to microgel ^Cu2LP1” value is given as 3.5×106 fold. In data set [7] (substrate 6 / β-9, pH 10.50, CAPS, 37° C.), the “catalytic proficiency relative to low molecular weight complex Cu2bpdpo” value is “about 3250 fold”. Also, in data set [7] (setting [10]), the Km is 110 ± 220 µM and the kcat was determined as 4.6 ± 0.1 min⁻¹. In data set [7] (setting [11]), the Km came out at 540 ± 60 µM and the kcat was 2.95 ± 0.09 10^−3 min^−1. In addition, in data set [7] (β-9, alkaline solution, pH 10.50), the “catalytic proficiency higher than that of amidine-templated microgel ^Cu2LP1” value is “about 57 fold”.

As usually defined, the pKa is the negative logarithm of the acid dissociation constant. Higher therefore signals a group that holds its proton tightly. Usually MIC stands for the lowest concentration found to suppress growth. Usually Km stands for the concentration of substrate that gives half-maximal velocity. In general, kcat refers to the maximal rate divided by the concentration of active sites.
